The record followed here is BindingDB's records for PubMed 8996189 (Pfizer, 1997).

Assay [1] has as its target T1, Adenosine receptor A1 (Oryctolagus cuniculus, UniProt P34970).
T1 sequence (P34970 whole entry): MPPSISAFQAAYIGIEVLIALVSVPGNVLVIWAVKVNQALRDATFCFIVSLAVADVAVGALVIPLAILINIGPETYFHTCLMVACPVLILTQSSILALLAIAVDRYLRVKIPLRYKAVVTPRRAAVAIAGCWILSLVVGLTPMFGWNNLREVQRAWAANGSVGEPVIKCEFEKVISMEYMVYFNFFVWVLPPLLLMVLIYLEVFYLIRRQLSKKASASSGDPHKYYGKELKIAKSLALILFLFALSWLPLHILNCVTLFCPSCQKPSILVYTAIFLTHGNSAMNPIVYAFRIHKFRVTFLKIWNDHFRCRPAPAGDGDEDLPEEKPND

Assay [2] deals with T2, Adenosine receptor A3 (Oryctolagus cuniculus, UniProt O02667).
T2 sequence (O02667 whole entry): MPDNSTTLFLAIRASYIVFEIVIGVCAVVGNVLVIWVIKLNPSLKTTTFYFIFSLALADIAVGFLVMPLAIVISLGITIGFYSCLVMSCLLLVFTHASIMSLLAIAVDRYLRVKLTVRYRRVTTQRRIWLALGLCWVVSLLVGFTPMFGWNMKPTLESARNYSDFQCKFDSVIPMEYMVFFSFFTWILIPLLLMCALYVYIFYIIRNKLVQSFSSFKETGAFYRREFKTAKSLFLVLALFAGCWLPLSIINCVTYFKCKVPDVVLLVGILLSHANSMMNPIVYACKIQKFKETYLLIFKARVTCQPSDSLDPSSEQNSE

The target of assay [3] is T3, Adenosine receptor A3 (Ovis aries, UniProt P35342).
T3 sequence (P35342 whole entry): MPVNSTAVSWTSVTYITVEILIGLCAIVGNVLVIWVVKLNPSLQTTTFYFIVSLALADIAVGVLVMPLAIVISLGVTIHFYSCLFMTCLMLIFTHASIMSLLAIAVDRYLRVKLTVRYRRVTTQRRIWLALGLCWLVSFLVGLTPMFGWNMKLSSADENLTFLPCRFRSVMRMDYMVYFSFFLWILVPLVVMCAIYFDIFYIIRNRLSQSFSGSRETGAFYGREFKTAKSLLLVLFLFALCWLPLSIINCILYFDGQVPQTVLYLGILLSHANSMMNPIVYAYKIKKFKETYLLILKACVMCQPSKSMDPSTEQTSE

Assay [4] deals with T4, Adenosine receptor A3 (Homo sapiens, UniProt P0DMS8).
T4 sequence (P0DMS8 whole entry): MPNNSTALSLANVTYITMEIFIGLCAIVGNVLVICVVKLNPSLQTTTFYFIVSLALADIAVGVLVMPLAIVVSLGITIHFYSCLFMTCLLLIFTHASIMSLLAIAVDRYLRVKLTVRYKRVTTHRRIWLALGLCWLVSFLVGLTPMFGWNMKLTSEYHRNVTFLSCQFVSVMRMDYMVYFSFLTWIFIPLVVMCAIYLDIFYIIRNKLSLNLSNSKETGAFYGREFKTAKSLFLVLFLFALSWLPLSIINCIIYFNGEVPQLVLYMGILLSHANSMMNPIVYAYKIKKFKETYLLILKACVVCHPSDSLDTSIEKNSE

The target in assay [5] is T5, Adenosine receptor A1 (Homo sapiens, UniProt P30542).
T5 sequence (P30542 whole entry): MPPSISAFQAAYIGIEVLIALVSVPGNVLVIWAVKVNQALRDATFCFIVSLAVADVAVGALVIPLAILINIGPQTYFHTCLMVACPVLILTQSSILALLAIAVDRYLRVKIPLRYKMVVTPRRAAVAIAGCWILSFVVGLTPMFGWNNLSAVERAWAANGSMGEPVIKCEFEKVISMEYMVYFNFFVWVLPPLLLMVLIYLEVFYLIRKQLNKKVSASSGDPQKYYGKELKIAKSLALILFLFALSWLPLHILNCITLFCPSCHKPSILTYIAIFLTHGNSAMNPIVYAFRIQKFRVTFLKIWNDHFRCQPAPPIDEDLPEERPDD

Molecules are shown by their SMILES.

For `CCNC(=O)[C@H]1O[C@@H](n2cnc3c(N)ncnc32)[C@H](O)[C@@H]1O`, the Ki – broadly, the equilibrium dissociation constant of an inhibitor or competing ligand from its target – turned out to be 2 nM in assay [1] and 27 nM in assay [2].
On to `CCCn1c(=O)c2[nH]c(-c3ccc(C=CC(=O)O)cc3)nc2n(CCC)c1=O` [NSC_129447], for which the inhibition constant (Ki) in assay [3] came to 21 nM; in assay [1] it was 3 nM; in assay [4], 40 nM; in assay [5], 120 nM; in assay [2], 746 nM.
Regarding `CCCn1c(=O)c2[nH]c(-c3ccc(OCC(=O)NCCN)cc3)nc2n(CCC)c1=O` [N-(2-Amino-ethyl)-2-[4-(2,6-dioxo-1,3-dipropyl-2,3,6,9-tetrahydro-1H-purin-8-yl)-phenoxy]-acetamide], the Ki in assay [1] was found to be 5 nM; in assay [2], 329 nM.
For `Nc1ccc(CCNc2ncnc3c2ncn3C2OC(CO)C(O)C2O)cc1` (stereo not drawn) [ChEMBL_198532], in that order: 6 nM and 47 nM.
In assay [2], `CCCn1c(=O)c2[nH]c(C3CCCC3)nc2n(CCC)c1=O` [DPCPX] came in with a Ki of 1120 nM.
In turn, `CC(Cc1ccccc1)Nc1ncnc2c1ncn2C1OC(CO)C(O)C1O` (stereo not drawn) [R-N6-(2-phenylisopropyl) adenosine] yielded an inhibition constant Ki in assay [2] of 49 nM.
On to `CNC(=O)C1OC(n2cnc3c(NCc4cccc(I)c4)ncnc32)C(O)C1O` (stereo not drawn) [3,4-dihydroxy-5-(6-{[(3-iodophenyl)methyl]amino}-9H-purin-9-yl)-N-methyloxolane-2-carboxamide], for which the Ki in assay [1] was determined as 30 nM.
`OC[C@H]1O[C@@H](n2cnc3c(NC4CCCC4)ncnc32)[C@H](O)[C@@H]1O` yielded an inhibitory constant (Ki) in assay [2] of 49 nM.
On the same count and under the same terms, as for `Cn1c(=O)c2[nH]c(-c3ccc(S(=O)(=O)O)cc3)nc2n(C)c1=O` [4-(1,3-Dimethyl-2,6-dioxo-2,3,6,7-tetrahydro-1H-purin-8-yl)-benzenesulfonic acid], the figure is > 10000 nM.
On to `Nc1ccc(CNc2ncnc3c2ncn3[C@@H]2O[C@H](CO)[C@@H](O)[C@H]2O)cc1I` [IABA], for which the inhibition constant Ki in assay [1] stood at 4 nM; in assay [2], 5 nM.
